Measurements taken from patent US10875891B2, “Short synthetic peptide and uses thereof” (MacKay Memorial Hospital, priority 2018, dated 2020).
Entries after “also recorded” stand apart in the source; their conditions may differ. Where no end group is shown, it is not given here.

What was measured:
RPMI8226 cells [1] = test: Trypan blue exclusion assay; format: cell-based, human; settings: vs solvent (DMSO) 7.5±1.3, FIG. 5
Description: (§1) The multiple myeloma line RPMI8226 or rat Raw264.7 macrophages were cultivated in complex medium (RPMI1640) supplemented with 10% (vol/vol) heat-inactivated fetal calf serum (Invitrogen), 50 μg/mL penicillin, 50 μg/mL streptomycin, and 2 mM L-glutamine at 37° C. in a 5% CO2 atmosphere RPMI8226 cells or U266 cells were cultured in serum-free RPMI1640 medium for 24 h, and then cells seeded in 48-well culture plates (3×10^5 cells/well) and cultured in 0.5 ml fresh serum-free RPMI1640 medium containing 20 μM peptide for further 24 h. The cell viability was determined by the MTT assay. The cells were examined under a microscope with the aid of a hemacytometer, in which 0.1 mL of trypan blue stock solution (0.4% solution of trypan blue in isotonic salt buffer solution, pH 7.2) was added to 1 mL cell suspension, and loaded therein. The number of blue staining cells (considered non-viable) and the number of total cells were respectively counted. Cell viability should be at least 95% for healthy log-phase cultures.

[2] = tested on: Murine psoriasis vulgaris-like skin inflammation model; test: IMQ-induced psoriasis vulgaris-like skin inflammation model, keratinocyte proliferation by BrdU incorporation; format: in vivo, BALB/c mice
Description: (§2) BALB/c mice (8-weeks old females; n=42) were used in this model system. […] Accordingly, in this model, each BALB/c mice received a daily topical dose (62.5 mg) of commercially available IMQ cream (Imiquimod Cream 5% w/w, Aldara™) on the shaved back and the right ear for 6 consecutive days (n=6); whereas the control mice (normal group) were treated with a control cream (n=6). For treatment, each test peptide was mixed with IMQ cream to give a concentration of 25 μM (n=6 per group). Keratinocyte proliferation was determined by BrdU incorporation. BrdU (Sigma-Aldrich) was reconstituted in DMSO as a stock solution of 80 mM. 10 μl of BrdU mixed with 90 μl of PBS was intraperitoneally injected into each mouse for 24 hr prior to euthanasia.
(§3) Slides were blocked with 10% goat serum for 60 min and then incubated with primary antibody against BrdU (1:50 dilution; GTX42641) for 3 hr at RT. The slides were then incubated with peroxidase-labeled donkey immunoglobulin for 30 min and then incubated with chromogen substrate (3,3′-diaminobenzidine) for 2 min before counterstaining with hematoxylin. Quantification was estimated based on high quality images (1208×960 pixels buffer) captured using a Nikon Eclipse 80i light microscope.

[3] = tested on: Murine psoriasis vulgaris-like skin inflammation model; test: IMQ-induced psoriasis vulgaris-like skin inflammation model, skin appearance; format: in vivo, BALB/c mice; settings: 25 μM with IMQ cream, topical daily, six consecutive days; FIG. 7
Description: as §2

Murine dry eye model [4] = test: Dry eye animal model, tear production by phenol red thread test; format: in vivo, C57BL/6 mice; settings: treated for 4 days; P<0.01 versus vehicle treatment; FIG. 4
Description: (§4) C57BL/6 mice (7-8 weeks old, each weighted about 18 to 25 g) were used in this model system. All mice were maintained in the animal facility in accordance with the procedures approved by Mackay Memorial Hospital Review Board (Taiwan, R.O. C.). All animal experimental procedures were conducted according to the ARVO Statement for the Use of Animals in Ophthalmic and Vision Research.
(§5) Dry eyes were induced by placing mice in a controlled environment chamber (CEC) for 14 days in accordance with procedures previously described by Barabino et al (IVOS (2005) 46(8), 2766-2771). Mice placed in the CEC were exposed to a condition, in which relative humidity (RH) was maintained at <25%, temperature at 20-22° C., and airflow at about 15 L/min, for 12 hours per day. Control mice were kept in a normal environment (RH>50%, no air flow, temperature of 20-22° C.) for the same duration.
(§6) A common artificial tear formulation, 1% carboxymethylcelllulose (CMC) dissolved in balanced salt solution (BSS) was used as the peptide vehicle. Peptide (50 μM) or 1% CMC vehicle was topically administered to eyes three times a day, for 4 days.
Tear production was measured with phenol red-impregnated cotton threads (Zone-Quick; Oasis, Glendora, Calif.). The validity of this test in mice was performed as previously described (Dursun et al., Invest Ophthalmol Vis Sci. 2002; 43:632-8). The threads were held with jeweler forceps and placed in the lateral canthus for 60 seconds. The tear production expressed in millimeters of thread wet by the tear and turned red.

RPMI8226 cells [5] = test: Annexin V/propidium iodide apoptosis by flow cytometry; format: cell-based, human; settings: treatment for 24 hr; control untreated cells less than 15%; FIG. 6
Description: Annexin V/propidium iodide (PI) staining was performed using flow cytometry according to the manufacturer's guidelines (Annexin V-FITC Apoptosis Detection kit; Roche). Briefly, 0.5×10^6 cells were washed in ice-cold PBS without Ca^2+ or Mg^2+ (Life Technologies). The cells were then re-suspended in 100 μl of binding buffer and incubated with 5.0 μl of PI and 2.0 μl of annexin V-fluorescein isothiocynate for 15 min in the dark at room temperature. Flow cytometric analysis was immediately performed using a FACScalibur Instrument (Becton Dickinson).

myeloma RPMI 8226 cell = test: MTT assay, cell viability; format: cell-based, human; settings: 20 μM peptide, 24 h, serum-free RPMI1640; FIGS. 1-2
Description: The multiple myeloma line RPMI8226 or […] Raw264.7 macrophages were cultivated in complex medium (RPMI1640) supplemented with 10% (vol/vol) heat-inactivated fetal calf serum (Invitrogen), 50 μg/mL penicillin, 50 μg/mL streptomycin, and 2 mM L-glutamine at 37° C. in a 5% CO2 atmosphere
RPMI8226 cells or U266 cells were cultured in serum-free RPMI1640 medium for 24 h, and then cells seeded in 48-well culture plates (3×10^5 cells/well) and cultured in 0.5 ml fresh serum-free RPMI1640 medium containing 20 μM peptide for further 24 h. The cell viability was determined by the MTT assay.
50 μL of the MTT stock solution (5 mg MTT dissolved in 1 ml of sterile PBS) was added to each well, and 50 μL of the MTT stock solution was added to 500 μL of medium alone and used as a negative control. Each sample was Incubates at 37° C. for 4 hours. Aliquots (450 μl) from each sample were taken to a new well of 48-well culture plate, adding 100 μL DMSO, mixing thoroughly using the pipette and reacted at 37° C. for 20 min and absorbance was measured at 570 nm.

[6] = tested on: Murine psoriasis vulgaris-like skin inflammation model; test: IMQ-induced psoriasis vulgaris-like skin inflammation model, H&E histology of back skin; format: in vivo, BALB/c mice
Description: as §2
Back skin of the mouse was fixed overnight in 4% paraformaldehyde, dehydrated with graded ethanol series, and paraffinized. Fixed samples were deparaffinized in xylene and rehydrated in a graded series of ethanol. Tissues were sliced into 5-μm sections. General histology was performed using hematoxylin and eosin (H&E) (Merck, Rayway, N.J., USA).
as §3

Murine dry eye model [7] = test: Dry eye animal model, fluorescein eye stain test for corneal injuries; format: in vivo, C57BL/6 mice; settings: peptide 50 μM topically three times a day for 4 days
Description: as §4, §5, §6
Corneal epithelial injury was determined by staining with topical fluorescein (100 mg/ml or 10%; FLUORESCITE™, Alcon Laboratories). For dosing, topical fluorescein (0.6 μL of 0.5% sodium fluorescein dissolved in 4.4 μL BSS per eye) was applied via a micro-pipette to the lateral canthus for 15 sec. Corneal fluorescein staining was examined with a slit-lamp biomicroscope under cobalt blue light and photographed with a digital camera. Data is presented as mean±SD. Dye staining of the cornea was scored in a blinded manner as follows: score 0 for no punctuate staining; score 1 when less than one third of the cornea was stained; score 2 when two thirds or less was stained; and score 3 when more than two thirds was stained.

U266 cells = test: Trypan blue exclusion assay; format: cell-based, human; settings: vs solvent (DMSO) 8.7±1.1, FIG. 5
Description: as §1, with “RPMI8226” for “The multiple myeloma line RPMI8226 or rat Raw264.7 macrophages were cultivated in complex medium (RPMI1640) supplemented with 10% (vol/vol) heat-inactivated fetal calf serum (Invitrogen), 50 μg/mL penicillin, 50 μg/mL streptomycin, and 2 mM L-glutamine at 37° C. in a 5% CO2 atmosphere RPMI8226”

With “NH2-Asp-Ile-Thr-Tyr-Val-Arg-Leu-Lys-Phe-COOH (DITYVRLKF; not fully specified (N-terminus, C-terminus); printed as NH2-Asp-Ile-Thr-Tyr-Val-Arg-Leu-Lys-Phe-COOH) [9-mer, short synthetic peptide …]” the “cell viability by trypan blue assay” value (RPMI8226 cells [1]) was 59.7±4.5, the “hyperproliferation of keratinocytes, BrdU-positive cells in the epidermis (labeling index)” value ([2]; 25 μM with IMQ cream, day 6, IMQ control 24.5±2.0, FIG. 9 panel B) was 8.3±1.4% and the “location of BrdU-positive cells in the epidermis” value ([2]; day 6 after IMQ treatment, FIG. 9 panel A) was “restrict to the basal layer of the epidermis”. For the same substance, the “skin inflammation and desquamation” value [3] was “reduced level of dosal skin inflammation and desquamation”, the “tear volume (tear production)” value (Murine dry eye model [4]) was “significantly increased” and the “myeloma cells exhibiting apoptotic phosphatidylserine exposure (annexin-V staining)” value (RPMI8226 cells [5]) was “approximately 54%”. The “myeloma RPMI 8226 cell viability (MTT assay)” value (myeloma RPMI 8226 cell) was “successfully suppressed myeloma RPMI 8226 cell viability; also recorded: effective in suppressing myeloma cell viability”, the “acanthosis, quantified epidermal thickness” value ([6]; 25 μM with IMQ cream, 6 days, IMQ control 122±10.5, FIG. 8 panel B) was 39.2±2.7 μm and the “acanthosis and desquamation in skin sections (H&E staining), result in words” value ([6]; vs IMQ-treated skin sections, FIG. 8 panel A) was “decrease in acanthosis and less desquamation”. The “reduction in mean corneal fluorescein staining score compared with vehicle treated control mice” value (Murine dry eye model [7]; FIG. 3 panel B) was “about 3 fold”, the “corneal fluorescein stain (corneal damage), result in words” value (Murine dry eye model [7]; vs vehicle) was “reduced significantly” and the “cell viability by trypan blue assay” value (U266 cells) was 47.0±4.6.
